Data from article PMC6476888, “Design and synthesis of anticancer 1-hydroxynaphthalene-2-carboxanilides with a p53 independent mechanism of action” (Scientific Reports, 2019).
Read-outs that look alike come from different tables or passages of the source.

How the values were obtained:
HCT116^+/+ = test: Antiproliferative assay (MTS, 72 h) on HCT116 wild type; assay type: cell-based, human; details: for IC50: Homo sapiens, HCT-116
HCT116^−/− = test: Antiproliferative assay (MTS, 72 h) on HCT116 with p53 deletion; assay type: cell-based, human; details: for IC50: Homo sapiens, HCT-116, MTS, 72 h incubation
NHDF = test: Cytotoxicity (MTS, 72 h) against normal human fibroblasts; assay type: cell-based; details: for IC50: Homo sapiens, NHDF, MTS, 72 h incubation
HCT116 cells = test: AO/EB staining apoptosis assay; assay type: cell-based, human; details: HCT116 p53^+/+ and p53^−/−, IC50 concentration
Method: Three compounds with a distinct activity were selected for further tests. […] The apoptosis of the cells that were treated with the active compounds was confirmed using the Acridine Orange (AO)/Ethidium Bromide (EB) staining test[70] (Fig. 5).
The dual acridine orange/ethidium bromide (AO/EB) staining method was used for the morphological analysis of apoptosis. The cells were seeded on coverslips at a density of 8·10^5 cells/slide and incubated at 37 °C for 48 h. Then, the medium was removed and solutions of 5 s, 5 u, 7 f and DOX at the IC50 concentration were added. After 24 h, the cells were washed with PBS, and then the cells were incubated in a staining solution (100 μg/mL AO and 100 μg/mL EB in PBS) (Sigma-Aldrich, St. Louis, MO, USA) for 3–4 min. After staining, the coverslips were washed with PBS and fixed with 3.7% paraformaldehyde for 15 min. Observations and photography were performed with a Nikon Eclipse Ni-U fluorescent microscope equipped with the sets of filters for AO and EB (excitation filter 450–490, barrier filter BA520).

[1] = MTS, 72 h incubation, read-out: Activity IC50 HCT116^+/+

Row | Structure (SMILES) | selectivity for the wild type over p53 null cells (HCT116^+/+) | IC50 (HCT116^+/+; [1]) | IC50 (HCT116^−/−) | IC50 (NHDF) | apoptosis (AO/EB staining) (HCT116 cells) | selectivity towards the p53 null cells (HCT116 p53^−/− vs wild type) (HCT116^−/−) | selectivity index (NHDF; cytotoxicity against the normal cell line vs HCT116) | IC50 (HCT116^+/+; submicromolar activity level, read-out: IC50 for the HCT116 wild type)
1 | O=C(Nc1cc(C(F)(F)F)cc(C(F)(F)F)c1Cl)c1ccc2ccccc2c1O [5u] | roughly four times more active against the wild type | 720 ± 280 nM | 2720 ± 630 nM | 16300 ± 1280 nM | early and late apoptotic cells |  |  | 
2 | O=C(Nc1ccc(F)c(Cl)c1)c1ccc2ccccc2c1O [5s] |  | 6870 ± 2480 nM | 830 ± 310 nM | > 25000 nM | early and late apoptotic cells | more than eight times more toxic | > 30 | 
3 | O=C(Nc1cc(C(F)(F)F)cc(C(F)(F)F)c1)c1ccc2ccccc2c1O [7f] |  | 460 ± 50 nM | 350 ± 80 nM | 3550 ± 760 nM | early and late apoptotic cells |  |  | 464 nM
